Measurements from patent US20220062299A1, “USE OF GLUCOCORTICOID STEROIDS IN PREVENTING AND TREATING CONDITIONS OF MUSCLE WASTING, AGING AND METABOLIC DISORDER” (NORTHWESTERN UNIVERSITY, priority 2018, published 2022).

System: mdx mice
Test: Multi-modal imaging (FDG-PET, microCT, MR) of live mdx mice
Format: in vivo, mouse
Conditions: weekly prednisone
Excerpt: Multi-modal Imaging (FDG-PET, microCT, MR). Mice were anesthetized in an induction chamber with 3% isoflurane in oxygen, weighed, and then transferred to a dedicated imaging bed with isoflurane delivered via nosecone at 1-2%. Mice were placed in the prone position on a plastic bed and immobilized to minimize changes in position between scans. Respiratory signals were monitored using a digital monitoring system developed by Mediso (Mediso-USA, Boston, Mass.). Mice were imaged with a preclinical microPET/CT imaging system (nanoScan PET/CT, Mediso-USA, Boston, Mass.). CT data was acquired with a 2.2× magnification, <60 μm focal spot, 2×2 binning, with 480 projection views over a full circle, using 50 kVp/[…], with a 300 ms exposure time. The projection data was reconstructed with a voxel size of 250 μm and using filtered (Butterworth filter) backprojection software from Mediso. A bone mineral density standard (GRM GmbH, Moehrendorf, Germany) with hydroxyapatite (HA) from 0 to 1200 mg HA/cm^3 was used to convert the CT images from Hounsfield units to bone mineral density. The HA standard was imaged with the same parameters. For PET imaging, a target of 10 MBq of ^18F-fluordeoxyglucose (FDG) was injected intravenously after mice had been fasted for four hours. PET acquisition parameters were as follows: 1:1 coincidence detection and 30-minute acquisition time. MLEM reconstruction was used with CT for attenuation correction and scattering. Pixel size was set to 0.3×0.3 mm. After completion of PET/CT, each mouse was transferred to the MRI scanner and a reference standard consisting of one tube of canola oil and one tube of water was positioned above its back. MRI was performed on a 9.4T Bruker Biospec MRI system with a 30 cm bore, a 12 cm gradient insert, and an AutoPac laser positioned motorized bed (Bruker Biospin Inc, Billerica, Mass.). Respiratory signals and temperature were monitored using an MR-compatible physiologic monitoring system (SA Instruments, Stonybrook, N.Y.); a warm water circulating system was used to maintain body temperature. A 72 mm quadrature volume coil (Bruker Biospin, Inc, Billerica, Mass.) was used to image each mouse's whole body in two overlapping fields of view. First, the mouse was positioned with the thorax at the magnet's isocenter and imaged using a T1-weighted accelerated spin echo sequence (Rapid Acquisition with Relaxation Enhancement, RARE) with five pairs of interleaved axial slice stacks covering brain to mid-abdomen. TR was nominally set at 1000 ms; with respiratory gating the functional TR was approximately 1500 ms (range 1300-2000 ms). The following additional parameters were used: TE=6.25 ms, RARE factor 4, MTX=256×256, FOV 45×45 mm, 15 slices of 1 mm thick, 4 mm gap between slices, and 2 signal averages. […]

C[C@]12C=CC(=O)C=C1CC[C@@H]1[C@@H]2C(=O)C[C@@]2(C)[C@H]1CC[C@]2(O)C(=O)CO [prednisone, Prednisone]
18FDG uptake in fat: decreasing | fat mass accumulation (magnetic resonance): did not increase | muscle uptake of 18FDG: increase | osteoporosis (bone mineral density, tomography): did not induce osteoporosis
